Where a SMILES comes first, the peptide text is derived from it. Bridges are numbered along the chain shown (N, C = ends). [ ]: non-standard residue; d: D form. The star is where a group is joined. Phe(4-CH2CH2COOH) = N[C@@H](Cc1ccc(CCC(=O)O)cc1)C(=O)O; Bip = N[C@@H](Cc1ccc(-c2ccccc2)cc1)C(=O)O; Phe(3-Me) = Cc1cccc(C[C@H](N)C(=O)O)c1; Cha = N[C@@H](CC1CCCCC1)C(=O)O; Carboxymethyl = O=C(O)C*; NMeA = CN[C@@H](C)C(=O)O; Aun = NCCCCCCCCCCC(=O)O; Dab = NCC[C@H](N)C(=O)O; Dap = NC[C@H](N)C(=O)O
Each compound was assayed against T1, PD-1/PD-L1 interaction (PE-labeled human PD-L1-Ig binding to Jurkat cell line over-expressing human PD-1) (Homo sapiens, UniProt Q15116) (assay: Jurkat-PD-1 Cell Binding High-Content Screening Assay (CBA)). Details: Jurkat-hPD-1 cells, PE-labeled PD-L1-Ig 20 nM final; read-out: Jurkat HPD1 PDL1 IC50.
T1 construct: expressed in transfected cells; host or cells: Jurkat
T1 sequence (Q15116 25-288): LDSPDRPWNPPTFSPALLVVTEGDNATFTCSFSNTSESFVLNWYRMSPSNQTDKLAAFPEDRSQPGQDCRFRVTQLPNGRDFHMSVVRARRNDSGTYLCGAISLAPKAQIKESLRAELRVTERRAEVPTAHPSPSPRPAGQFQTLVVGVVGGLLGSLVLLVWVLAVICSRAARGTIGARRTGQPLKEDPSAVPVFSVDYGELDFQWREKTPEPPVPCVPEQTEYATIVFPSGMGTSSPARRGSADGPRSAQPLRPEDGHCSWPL
Summary of the method: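 Read-out: high-content imaging of cell-bound PE fluorescence, with Hoechst 33342 nuclear counterstain after paraformaldehyde fixation. Before labeled ligand (20 nM final, 1 h) was added, compound sat on the cells for 2 h at 37 °C in DMEM/10% FCS.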
`Cc1cccc(C[C@@H]2NC(=O)[C@H](CC(=O)O)NC(=O)[C@H](Cc3ccc(OCC(=O)O)cc3)NC(=O)[C@H](CN)NC(=O)CSC[C@@H](C(=O)N[C@@H](CCN)C(=O)NCCCCCCCCCCC(=O)O)NC(=O)[C@H]([C@@H](C)O)NC(=O)[C@H](C(C)C)NC(=O)[C@H](CC3CCCCC3)NC(=O)[C@H](CCN)NC(=O)[C@@H](CC(C)C)NC(=O)[C@H](C)N(C)C(=O)[C@H](Cc3ccc(O)cc3)NC(=O)[C@H](Cc3ccc(-c4ccccc4)cc3)NC(=O)[C@H](Cc3ccc(OCC(=O)O)cc3)NC2=O)c1` [Example 1258] ({CH2CO}-[Dap]Y(Carboxymethyl)D[Phe(3-Me)]Y(Carboxymethyl)[Bip]Y[NMeA][dL][Dab][Cha]VTC[Dab][Aun]-OH; thioether N-14) showed an IC50 of 19 nM.
With `Cc1cccc(C[C@@H]2NC(=O)[C@H](CC(=O)O)NC(=O)[C@H](Cc3ccc(OCC(=O)O)cc3)NC(=O)[C@H](CN)NC(=O)CSC[C@@H](C(=O)N[C@@H](CCN)C(=O)NCCCCCCCCCCC(=O)O)NC(=O)[C@H](CO)NC(=O)[C@H](C(C)C)NC(=O)[C@H](CC3CCCCC3)NC(=O)[C@H](CCN)NC(=O)[C@@H](CC(C)C)NC(=O)[C@H](C)N(C)C(=O)[C@H](Cc3ccc(O)cc3)NC(=O)[C@H](Cc3ccc(-c4ccccc4)cc3)NC(=O)[C@H](Cc3ccc(OCC(=O)O)cc3)NC2=O)c1` [Example 1259] ({CH2CO}-[Dap]Y(Carboxymethyl)D[Phe(3-Me)]Y(Carboxymethyl)[Bip]Y[NMeA][dL][Dab][Cha]VSC[Dab][Aun]-OH; thioether N-14) the IC50 was 14.9 nM.
Compound `Cc1cccc(C[C@@H]2NC(=O)[C@H](CC(=O)O)NC(=O)[C@H](Cc3ccc(OCC(=O)O)cc3)NC(=O)[C@H](CN)NC(=O)CSC[C@@H](C(=O)N[C@@H](CCN)C(=O)NCCCCCCCCCCC(=O)O)NC(=O)[C@H]([C@@H](C)O)NC(=O)[C@H](C(C)C)NC(=O)[C@H](CC3CCCCC3)NC(=O)[C@H](CCN)NC(=O)[C@@H](CC(C)C)NC(=O)[C@H](C)N(C)C(=O)[C@H](Cc3ccc(OCC(=O)O)cc3)NC(=O)[C@H](Cc3ccc(-c4ccccc4)cc3)NC(=O)[C@H](C(C)C)NC2=O)c1` [Example 1260] ({CH2CO}-[Dap]Y(Carboxymethyl)D[Phe(3-Me)]V[Bip]Y(Carboxymethyl)[NMeA][dL][Dab][Cha]VTC[Dab][Aun]-OH; thioether N-14) has an IC50 of 10.4 nM.
Compound `Cc1cccc(C[C@@H]2NC(=O)[C@H](CC(=O)O)NC(=O)[C@H](Cc3ccc(OCC(=O)O)cc3)NC(=O)[C@H](CN)NC(=O)CSC[C@@H](C(=O)N[C@@H](CCN)C(=O)NCCCCCCCCCCC(=O)O)NC(=O)[C@H](CO)NC(=O)[C@H](C(C)C)NC(=O)[C@H](CC3CCCCC3)NC(=O)[C@H](CCN)NC(=O)[C@@H](CC(C)C)NC(=O)[C@H](C)N(C)C(=O)[C@H](Cc3ccc(OCC(=O)O)cc3)NC(=O)[C@H](Cc3ccc(-c4ccccc4)cc3)NC(=O)[C@H](C(C)C)NC2=O)c1` [Example 1261] ({CH2CO}-[Dap]Y(Carboxymethyl)D[Phe(3-Me)]V[Bip]Y(Carboxymethyl)[NMeA][dL][Dab][Cha]VSC[Dab][Aun]-OH; thioether N-14) has an IC50 of 16.6 nM.
`Cc1cccc(C[C@@H]2NC(=O)[C@H](CC(=O)O)NC(=O)[C@H](Cc3ccc(OCC(=O)O)cc3)NC(=O)[C@H](CN)NC(=O)CSC[C@@H](C(=O)N[C@@H](CCN)C(=O)NCCCCCCCCCCC(=O)O)NC(=O)[C@H]([C@@H](C)O)NC(=O)[C@H](C(C)C)NC(=O)[C@H](CC3CCCCC3)NC(=O)[C@H](CCN)NC(=O)[C@@H](CC(C)C)NC(=O)[C@H](C)N(C)C(=O)[C@H](Cc3ccc(OCC(=O)O)cc3)NC(=O)[C@H](Cc3ccc(-c4ccccc4)cc3)NC(=O)[C@H](Cc3ccc(CCC(=O)O)cc3)NC2=O)c1` [Example 1262] ({CH2CO}-[Dap]Y(Carboxymethyl)D[Phe(3-Me)][Phe(4-CH2CH2COOH)][Bip]Y(Carboxymethyl)[NMeA][dL][Dab][Cha]VTC[Dab][Aun]-OH; thioether N-14) gave an IC50 of 8.9 nM.
